Reference: patent publication US20240050358A1, “PERSONAL CARE COMPOSITION” (Conopco, Inc., d/b/a UNILEVER, priority 2020, published 2024)

Tested on: interleukin (IL)-6
Assay: Human immune cell line THP-1 in vitro assay: IL-6 by ELISA after LPS co-treatment
Type: cell-based
Conditions: PMA-differentiated THP1-XBlue cells co-treated with E. coli LPS and composition for 24 hours; supernatant ELISA; percentage to LPS-treated cells (=100%); three repeats
Description: Human Immune Cell Line THP-1 In Vitro Assay The following procedure was used to determine the anti-inflammation efficacy: THP1-XBlue™ (Cat No.: thpx-sp, InvivoGen, San Diego, CA) cells were cultured as suspense in RPMI 1640 medium supplemented with 10% fetal bovine serum (FBS), penicillin (10 U/mL)-streptomycin (10 μg/mL) (Gibco, Invitrogen, Carlsbad, CA). Cells were differentiated in 24-well plates at the density of 5×10^5 cells/well with 100 nM phorbol-12-myristate-13-acetate (PMA) for 72 hours. Cells were then co-treated with pure E. coli lipopolysaccharides (LPS) and various compositions in Table 1. […] Expression of IL-6 was calculated as the percentage to LPS-treated cells which was designated as 100%. P value was analysed by Student's t-test comparing combination groups and individual compound groups (expression of IL-6, three repeats for each group).

CCCCCCC(O)CCCCCCCCCCC(=O)O (stereo not shown) [B, 12-hydroxystearic acid]
Expression of IL-6 (%): 91.9%
